Measured values as given in the NIST ThermoML archive (doi:10.1021/je5010214).

Conditions: Liquid, Vibrating tube method

CCCCO [butan-1-ol]
Conditions	mass density [kg/m3]
303.15 K, 21920 kPa	817.555
303.15 K, 24992 kPa	819.44
303.15 K, 31958 kPa	823.711
303.15 K, 32862 kPa	824.267
303.15 K, 33112 kPa	824.372
303.15 K, 34081 kPa	824.9
303.15 K, 34980 kPa	825.355
303.15 K, 37951 kPa	827.164
303.15 K, 39904 kPa	828.27
303.15 K, 42014 kPa	829.398
303.15 K, 44896 kPa	831.035
303.15 K, 47951 kPa	832.781
303.15 K, 50065 kPa	833.864
303.15 K, 52073 kPa	834.942
303.15 K, 55075 kPa	836.525
303.15 K, 57989 kPa	838.099
303.15 K, 59979 kPa	839.13
303.15 K, 62052 kPa	840.165
303.15 K, 64988 kPa	841.599
303.15 K, 66030 kPa	842.119
303.16 K, 100 kPa	802.125
303.16 K, 2964.9 kPa	804.3
303.16 K, 7045.6 kPa	807.335
303.16 K, 8858.2 kPa	808.638
303.16 K, 10014 kPa	809.449
303.16 K, 18021 kPa	814.973
303.16 K, 27933 kPa	821.256
303.16 K, 29990 kPa	822.537
308.15 K, 274.3 kPa	798.317
308.15 K, 494.1 kPa	798.504
308.15 K, 803.3 kPa	798.75
308.15 K, 1039.5 kPa	798.954
308.15 K, 1916.7 kPa	799.642
308.15 K, 2980.7 kPa	800.489
308.15 K, 4990.2 kPa	802.048
308.15 K, 6964.9 kPa	803.548
308.15 K, 8864.3 kPa	804.962
308.15 K, 9863.1 kPa	805.692
308.15 K, 12009 kPa	807.267
308.15 K, 17850 kPa	811.315
308.15 K, 19930 kPa	812.759
308.15 K, 21988 kPa	814.131
308.15 K, 25012 kPa	816.144
308.15 K, 27955 kPa	817.999
308.15 K, 29906 kPa	819.191
308.15 K, 31929 kPa	820.41
308.15 K, 32886 kPa	820.911
308.15 K, 32941 kPa	821.059
308.15 K, 34011 kPa	821.636
308.15 K, 37971 kPa	823.987
308.15 K, 40011 kPa	825.154
308.15 K, 41998 kPa	826.392
308.15 K, 45017 kPa	828.081
308.15 K, 48033 kPa	829.748
308.15 K, 50044 kPa	830.856
308.15 K, 51977 kPa	831.933
308.15 K, 54982 kPa	833.542
308.15 K, 58009 kPa	835.036
308.15 K, 60030 kPa	836.098
308.15 K, 61985 kPa	837.136
308.15 K, 64981 kPa	838.691
308.16 K, 85.2 kPa	798.155
308.16 K, 15069 kPa	809.4
308.16 K, 34949 kPa	822.224
308.16 K, 66088 kPa	839.237
313.15 K, 103.1 kPa	794.254
313.15 K, 316 kPa	794.433
313.15 K, 569.6 kPa	794.643
313.15 K, 1088.8 kPa	795.074
313.15 K, 2109.7 kPa	795.902
313.15 K, 3137 kPa	796.707
313.15 K, 5111.8 kPa	798.292
313.15 K, 6921.8 kPa	799.704
313.15 K, 9210.7 kPa	801.445
313.15 K, 10209 kPa	802.164
313.15 K, 12020 kPa	803.525
313.15 K, 15059 kPa	805.716
313.15 K, 17921 kPa	807.72
313.15 K, 19932 kPa	809.082
313.15 K, 22058 kPa	810.55
313.15 K, 24862 kPa	812.41
313.15 K, 27869 kPa	814.438
313.15 K, 29957 kPa	815.731
313.15 K, 32107 kPa	817.091
313.15 K, 32980 kPa	817.674
313.15 K, 33002 kPa	817.783
313.15 K, 33981 kPa	818.214
313.15 K, 35045 kPa	818.819
313.15 K, 38127 kPa	820.76
313.15 K, 41978 kPa	822.973
313.15 K, 44946 kPa	824.676
313.15 K, 47880 kPa	826.39
313.15 K, 52097 kPa	828.677
313.15 K, 54924 kPa	830.321
313.15 K, 58082 kPa	831.994
313.15 K, 59932 kPa	832.96
313.15 K, 62004 kPa	834.048
313.15 K, 64954 kPa	835.652
313.15 K, 66113 kPa	836.222
313.16 K, 860.7 kPa	794.888
313.16 K, 39997 kPa	821.817
313.16 K, 50021 kPa	827.556
318.15 K, 72.7 kPa	790.456
318.15 K, 150.1 kPa	790.516
318.15 K, 336.3 kPa	790.675
318.15 K, 1105.7 kPa	791.334
318.15 K, 1929.1 kPa	792.026
318.15 K, 2933.2 kPa	792.866
318.15 K, 8989 kPa	797.678
318.15 K, 10075 kPa	798.523
318.15 K, 11896 kPa	799.896
318.15 K, 18102 kPa	804.461
318.15 K, 19985 kPa	805.78
318.15 K, 22094 kPa	807.257
318.15 K, 29998 kPa	812.541
318.15 K, 33016 kPa	814.458
318.15 K, 37838 kPa	817.415
318.15 K, 40093 kPa	818.817
318.15 K, 44884 kPa	821.648
318.15 K, 47944 kPa	823.402
318.15 K, 54944 kPa	827.433
318.15 K, 57972 kPa	829.016
318.15 K, 59923 kPa	830.12
318.15 K, 65022 kPa	832.785
318.15 K, 66028 kPa	833.327
318.16 K, 590.9 kPa	790.894
318.16 K, 891 kPa	791.16
318.16 K, 5020.8 kPa	794.556
318.16 K, 6926.7 kPa	796.098
318.16 K, 14800 kPa	802.072
318.16 K, 24873 kPa	809.191
318.16 K, 27909 kPa	811.139
318.16 K, 31957 kPa	813.824
318.16 K, 34110 kPa	815.009
318.16 K, 35048 kPa	815.63
318.16 K, 41996 kPa	819.89
318.16 K, 49950 kPa	824.565
318.16 K, 52037 kPa	825.741
318.16 K, 61930 kPa	831.241
323.15 K, 95 kPa	786.145
323.15 K, 296.1 kPa	786.326
323.15 K, 528.4 kPa	786.535
323.15 K, 994.2 kPa	786.944
323.15 K, 2006.9 kPa	787.814
323.15 K, 2966.6 kPa	788.632
323.15 K, 4996.2 kPa	790.328
323.15 K, 7042.1 kPa	792.001
323.15 K, 9029.9 kPa	793.564
323.15 K, 10090 kPa	794.392
323.15 K, 11914 kPa	795.8
323.15 K, 15111 kPa	798.229
323.15 K, 17981 kPa	800.333
323.15 K, 20038 kPa	801.815
323.15 K, 21995 kPa	803.198
323.15 K, 24993 kPa	805.264
323.15 K, 32079 kPa	809.955
